This note sets out measurements from a melting point compilation (Tetko et al.; mined from patent text by program, amines drawn as free bases though some values may be those of a salt).

As a reminder, the melting point is the temperature of the solid-liquid transition.

The compound `CC(C)(C(=O)C(Oc1ccc(Cl)cc1Cl)n1cncn1)C(Cl)Cl` (stereo not drawn) displayed a melting point of 120 to 121 °C.

`FC(F)Oc1ccc(C=Cc2nc(CNc3ccc(CCCCn4ccnn4)cc3)co2)cc1` registered a melting point of 101 to 102 °C.

As to `CCCc1c(CC)[nH]c(C(=O)OCC)c1C`, the melting point was 86 to 87 °C.

On to `CCC#CC1(C(F)(F)F)OC(=O)Nc2ccc(OC)cc21` (stereo not drawn), for which the melting point was in the range of 161 to 162 °C.

Regarding `Cc1ccccc1CN(O)C(=O)C(C)(C)CCl`, the melting point fell in the range of 112 to 113 °C.

`Cc1ccccc1Oc1nc(Cl)cc(Cl)n1` returned a melting point of 78 to 79 °C.

`Nc1cc2c(=O)cc(C(=O)O)[nH]c2ccc1=O` had a melting point above 250 °C.

`COc1ccc(CN2Cc3cncn3C(c3ccc(Br)cc3)C2=O)cc1` (stereo not drawn): the melting point fell in the range of 123 to 124 °C.

With `COc1ccc(C(=O)c2c(F)cccc2F)c(Cl)c1Cl`, the melting point lay in the range of 94 to 96 °C.

As for `O=C1c2ccccc2C(=O)N1CC(O)c1cnc(-c2ccccc2)nc1-c1ccccc1` (stereo not drawn), the melting point fell in the range of 149 to 159 °C.

Compound `COc1ccc(C(NCCC(c2ccccc2)c2ccccc2)c2cccc(Nc3c(N)c(=O)c3=O)c2)cc1` (stereo not drawn) came in with a melting point of 132 to 134 °C.

`O=C(/C=C/c1cccc(NC(=O)CCCc2ccccc2)c1)NO` came in with a melting point of 152 to 153 °C.

The compound `C=COC(=O)NC1Cc2ccc(-c3ccc(=O)[nH]n3)cc2C1` (stereo not drawn) returned a melting point of 205 to 206 °C.

Compound `CCCn1c(=O)c2c(nc(/C=C/c3cc(OC)c(OC)c(OC)c3)n2C)n(CCC)c1=O` gave a melting point of 168 to 169 °C.

`CC(C)(C)CNc1cc(F)cc(C(=O)Nc2ccc(OCCN3CCOCC3)c3ccccc23)c1`: the melting point was 85 to 87 °C.

`CC(C)(C)OC(=O)Nc1nc2cc(N)ccc2[nH]1` returned a melting point of 168 °C.

As for `CC(C)(C#N)c1c(Cl)cc(-n2ncc(=O)[nH]c2=O)cc1Cl`, the melting point was determined as 180 °C.

Regarding `Cc1cnc(C(=O)c2[nH]c3cc(Cl)ccc3c2CC(=O)O)c(C)c1`, the melting point was 199 to 200 °C.

`N#CC1=C(c2ccccc2)Nc2n[nH]cc2C1c1cccc(C#N)c1Br` (stereo not drawn) gave a melting point above 270 °C.

The compound `CNC(CC(=O)O)c1ccccc1` (stereo not drawn) showed a melting point of 167 to 168 °C.

As for `NN1CCN(CCc2c[nH]c3ccccc23)CC1`, the melting point is 115 to 117 °C.

Regarding `O=C(NC1CCN(CCc2ccccc2)CC1)c1c[nH]c2ccc(F)cc12`, the melting point fell in the range of 238 to 240 °C.

On to `Cc1cc(CCCCCCCOc2ccc(C3=N[C@@H](C(C)C)CO3)cc2)on1`, for which the melting point lay within 122 to 123 °C.

In the case of `O=C(O)c1ccc(C(=O)Nc2ccccc2C(c2ccc(O)cc2)c2ccc(O)cc2)cc1`, the melting point fell in the range of 280 to 282 °C.

In turn, `Cc1oc2ccccc2c(=O)c1O` came in with a melting point of 179 to 180 °C.

In the case of `COC(=O)/C=C/c1ccc(NC(C)=O)nc1`, the melting point lay in the range of 172 to 200 °C.

With `Cc1c(C)c2c(c(Br)c1NC(=O)CC(C)(C)C)C(c1ccc(C(C)C)cc1)CO2` (stereo not drawn), the melting point is 150 to 151 °C.

Compound `CCOP(=O)(CCC1(C)NC(=O)NC1=O)OCC` (stereo not drawn) came in with a melting point of 100 to 103 °C.

Compound `Cc1cc(-c2ccc(C(F)(F)F)cc2)cc(-c2cccc(-c3cccc(S(N)(=O)=O)c3)n2)n1` had a melting point of 250 °C.

`COc1cnn(-c2cc(F)c(C#N)cc2F)c(=O)c1Cl` had a melting point of 182 °C.

The compound `Cc1cccc2c(Nc3ccc(OCCCCN(CCCl)CCCl)cc3)c3cccc(C(=O)NCCN(C)C)c3nc12` displayed a melting point of 166 to 167 °C.

With `C1=Cc2ccccc2C=CN1`, the melting point was 186 to 190 °C.

On to `CCc1ccccc1NC=C1C(=O)N(c2ccc(NC(C)=O)cc2)N=C1C`, for which the melting point stood at 230 °C.

Compound `O=C(CCn1ccnc1)c1ccc(Cl)cc1Cl` displayed a melting point of 105 to 109 °C.

Compound `Fc1ccc(-c2cnc(SC(F)(F)F)nc2-c2ccc(F)cc2)cc1` registered a melting point of 80 to 83 °C.

As for `CCCc1nc2c(N)nc(C)c(C)c2n1CCCCN(OC)C(=O)c1ccccc1`, the melting point lay within 136 to 137 °C.

With `O=C(Nc1ccc2c(c1)CC(NS(=O)(=O)c1ccccc1)C2)c1ccccc1-c1ccc(C(F)(F)F)cc1` (stereo not drawn), the melting point worked out at 96 °C.

`Cn1cnc2c(ccc3[nH]cc(CCN)c32)c1=O`: the melting point is 279 to 285 °C.

With `O=Cc1c2c(cc3ccccc13)Cc1ccccc1-2`, the melting point was in the range of 104 to 106 °C.

Compound `CN1CC(=O)Nc2ccc(Cl)c(F)c2C1=O` gave a melting point above 250 °C.

The compound `CCCCCCCNC(=O)Nc1ccc(NC(=O)NCCCC)cc1C(=O)NC1CCN(C(c2ccccc2)c2ccccc2)CC1` showed a melting point of 209 to 211 °C.

The compound `COc1ccc2c(O)c(C(=O)N(O)c3ccccc3)cnc2c1` had a melting point of 260 °C.

With `COc1cccc(C2(O)c3cccc(O)c3C(=O)c3c(O)cccc32)c1`, the melting point was 187 °C.

The compound `N#CN1CCC(c2n[nH]c3cc(F)ccc23)CC1` returned a melting point of 143 to 145 °C.

As for `CC(C)N(c1cccc2cc(C(N)=S)[nH]c12)S(=O)(=O)c1cccs1`, the melting point lay in the range of 204 to 205 °C.

As to `CCOC(=O)c1ccccc1-n1c(C)nc2cnccc21`, the melting point was in the range of 125 to 127 °C.

As to `Nc1ccc(Oc2ccccc2)cc1SC(c1ccc2c(c1)OCO2)C(O)C(=O)O` (stereo not drawn), the melting point lay within 158 to 159 °C.

`COc1cc2ncc(C#N)c(Nc3ccc(C(F)(F)F)cc3)c2cc1OC` had a melting point of 116 to 118 °C.

`O=C1CN=C(c2ccccc2F)c2ccccc2N1`: the melting point fell in the range of 181 to 182 °C.

Regarding `O=C1CN(C(=O)C(Cl)Cl)N(Cc2ccc(Cl)c(Cl)c2)C(=O)N1`, the melting point worked out at 196 °C.

`CN(C)c1cc2nc(C(C)(C)C)sc2cc1N=C=S` showed a melting point of 63 to 66 °C.

`Cn1ccnc1Sc1cc(Cl)ccc1[N+](=O)[O-]` yielded a melting point of 130 to 131 °C.

Take `Cc1nn(C)c(C)c1S(=O)(=O)n1c(CCCC(=O)O)cc2cc(Cl)ccc21`: the melting point lay in the range of 142 to 145 °C.

On to `CC(C)(C)c1ccc(-c2nc(Cl)c3ccccc3n2)cc1`, for which the melting point lay in the range of 75 to 76.5 °C.

The compound `CC1(C)Oc2c(c(=O)n(Cc3ccccc3)c3ccccc23)[C@@H](N2CCCC2=O)[C@@H]1O` (relative stereo) came in with a melting point above 260 °C.

On to `CC(=O)N1CC(=O)C2=C(C1)CN1NC(N3CCOCC3)=NC1=N2`, for which the melting point lay in the range of 310 to 313 °C.

In turn, `O=C(O)CCCCCNC(=O)C(CS)Cc1ccccc1` (stereo not drawn) gave a melting point of 58 to 60 °C.

As to `CCCCc1nn(-c2ccc(C(F)(F)F)cn2)cc1/C=C/C(=O)OCC`, the melting point is 84 to 85 °C.

As to `O=C(NCc1ccccc1)c1ccnc(NC(=O)c2cccc3ccccc23)c1`, the melting point is 65 to 67 °C.

Compound `Cc1ccc(C)n1-c1ccc2ccc3[nH]c(=O)c(=O)n(CC(=O)Nc4ccccc4)c3c2c1` registered a melting point above 260 °C.

The compound `CCCCCC1OCc2cc(C(N)=O)ccc2O1` (stereo not drawn) gave a melting point of 162 to 163 °C.

In the case of `C=C(C)C(=O)OCCC(=O)Oc1ccc(-c2cc(OC(=O)C(=C)C)cc(-c3ccc(OC(=O)CCOC(=O)C(=C)C)cc3)c2)cc1`, the melting point was found to be 88 °C.

`CC1(C)CCC(C)(C)c2cc3[nH]c(-c4ccc(C(=O)O)cc4)cc3cc21` showed a melting point of 294 to 296 °C.

`CCOC(=O)c1cn2c3c(c(-c4ccccc4)c(F)cc3c1=O)OCC2C` (stereo not drawn): the melting point was 270 to 272 °C.

`CN1CCN(c2cccc3c2C[C@H](NC(=O)c2ccc(C(=O)N4CCOCC4)cc2)CC3)CC1` showed a melting point of 124 to 127 °C.

`Cc1oc(-c2ccccc2)nc1COc1ccc2cc(C=CC=C3SC(=O)NC3=O)ccc2c1` returned a melting point of 267 to 268 °C.

In the case of `Cn1cc(-c2cccc(C(F)(F)F)c2)c(=O)c(-c2cccc(C(F)(F)F)c2)c1`, the melting point lay in the range of 152 to 154 °C.

Regarding `C=C(C)CCOc1c(-c2ccc(S(C)(=O)=O)cc2)cnn(-c2cccc(Cl)c2)c1=O`, the melting point lay in the range of 110 to 112 °C.

`Cc1ccc(C(=O)Cl)cc1OCc1ccccc1` showed a melting point of 49 to 51 °C.

For the compound `CC(C)(C)OC(=O)NCCNc1nnc(N)s1`, the melting point is 219 to 220 °C.

`NCC=Cc1ccc(NC(=O)c2ccccc2-c2ccc(C(F)(F)F)cc2)cc1` returned a melting point of 190 °C.

In the case of `CC(=O)OCc1cc2c3ccccc3[nH]c(=O)n2n1`, the melting point is 177 to 179 °C.

Compound `N#Cc1ccc(OCC(F)(F)C(F)(F)C(F)(F)C(F)(F)COc2ccc([N+](=O)[O-])cc2[N+](=O)[O-])cc1` yielded a melting point of 89 to 90.6 °C.

`C=CCc1cccc2c(=O)cc(-c3c(F)cccc3F)oc12` came in with a melting point of 84 to 86 °C.

`Cc1nc(=O)[nH]c2cc(N(C)C)ccc12` displayed a melting point above 300 °C.

Compound `Cc1ccc(Cn2nc(C(=O)O)c(C)c2-c2ccc(Cl)cc2)cc1Cl` had a melting point of 162 °C.

`Cc1cc(Oc2ccc(-c3ccn(CC4CC4)c(=O)c3C(F)(F)F)cc2F)cc(C)n1` gave a melting point of 162 °C.

Compound `CC(=O)N1CCCCc2ccc(C(=O)CCC3CCN(Cc4ccccc4)CC3)cc21` yielded a melting point of 115 to 116 °C.

The compound `C[C@@H]1Cc2cc3c(cc2C(c2ccc(Cl)cc2)=NN1C1=NCCS1)OCO3` returned a melting point of 216 to 219 °C.

`O=C1Nc2ccccc2C1C1CCN(CC(O)C2COc3ccccc3O2)CC1` (stereo not drawn) showed a melting point of 115 to 120 °C.

Regarding `CN1CCC(Cc2cc3cccnc3[nH]2)C1` (stereo not drawn), the melting point is 96 to 97 °C.

In turn, `N[C@H]1CC[C@@H](Oc2ccc3[nH]ncc3c2)CC1` showed a melting point of 144 to 146 °C.

Regarding `O=C1N(Cc2ccccn2)c2cccc(-c3cccnc3)c2C12COc1cc3c(cc12)CCO3` (stereo not drawn), the melting point was above 200 °C.

The compound `Cc1oc(-c2ccccc2)nc1CCOc1ccc(C[C@H](NCc2ccc(F)cc2)C(=O)O)cc1` showed a melting point of 184 to 186 °C.

With `O=[N+]([O-])c1nn(-c2c(Cl)cc(C(F)(F)F)cc2Cl)cc1S(=O)C(F)(F)F` (stereo not drawn), the melting point was 124 to 130 °C.

In the case of `N#Cc1cnc2cc3c(cc2c1Nc1cccc(Br)c1)OCO3`, the melting point fell in the range of 201 to 205 °C.

Compound `Cc1ccc(S(=O)(=O)O[C@H](Cc2ccccc2)C(=O)NCCc2ocnc2C(=O)OCc2ccccc2)cc1` registered a melting point of 96 to 98 °C.

Compound `COC(=O)/C(=N/NC(N)=O)c1ccc(OCCOc2ccc3ccccc3c2)cc1` came in with a melting point of 132 to 134 °C.
